Results taken from patent US9605004B2, “Chemical compounds” (SYNGENTA LIMITED, priority 2013, dated 2017).

Tests used:
[1] = system: a variety of test species; test: Pre-emergence herbicidal activity (Example 8a, Table 2); format: in vivo; parameters: key: 0 = no damage to plant, 5 = total damage to plant; conditions: application pre-emergence, rate 1000 g/ha, evaluated after 13 days
Summary of the method: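 Damage was rated 13 days after treatment on a 0–5 scale (0 = no damage, 5 = total damage). Pots of seeds in standard soil were sprayed one day after sowing with an aqueous solution from an acetone/water (50:50), 0.5% Tween 20 formulation and kept at 24/16 °C day/night.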

[2] = system: a variety of test species; test: Post-emergence herbicidal activity (Example 8b, Table 3); format: in vivo; conditions: application post-emergence, rate 1000 g/ha, evaluated after 13 days, scale 0-5; for Herbicidal damage score, ABUTH: Abutilon theophrasti; for Herbicidal damage score, ALOMY: Alopecurus myosuroides; for Herbicidal damage score, AMARE: Amaranthus retroflexus; for Herbicidal damage score, ECHCG: Echinochloa crus-galli; for Herbicidal damage score, SETFA: Setaria faberi; for Herbicidal damage score, ZEAMX: Zea mays
Summary of the method: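 Seeds were sown in standard soil and cultivated for 8 days under controlled glasshouse conditions. Seedlings were then sprayed with an aqueous solution of the formulated compound containing 0.5% Tween 20. Injury was rated after a further 13 days, where 5 indicated total damage.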

How did the “Pre-emergence herbicidal activity, damage score ABUTH” value [1] turn out when `CC1=C(Br)C(=O)N(c2cc3n(n2)CCCC3(C)C)C1O` (stereo not drawn) [Compound M2] was run?
The value was 5.

And the “Pre-emergence herbicidal activity, damage score ALOMY” value [1]?
Its value is 4.

What about the “Pre-emergence herbicidal activity, damage score AMARE” value [1] of the same compound?
The value was 5.

What about the “Pre-emergence herbicidal activity, damage score ECHCG” value [1] of the same compound?
Its value is 5.

What about the “Pre-emergence herbicidal activity, damage score SETFA” value [1] of the same compound?
The value was 4.

And the “Pre-emergence herbicidal activity, damage score ZEAMX” value [1]?
The value was 3.

What about the “Herbicidal damage score, ABUTH” value [2] of the same compound?
Its value is 5.

And the “Herbicidal damage score, ALOMY” value [2]?
Its value is 5.

What about the “Herbicidal damage score, AMARE” value [2] of the same compound?
Its value is 5.

And the “Herbicidal damage score, ECHCG” value [2]?
The value was 5.

And the “Herbicidal damage score, SETFA” value [2]?
Its value is 5.

And the “Herbicidal damage score, ZEAMX” value [2]?
Its value is 3.

What does the source list for `CC1=C(Br)C(=O)N(c2cc3n(n2)CCSC3(C)C)C1O` (stereo not drawn) [Compound M3]?
Pre-emergence herbicidal activity, damage score ABUTH [1]: 4; Pre-emergence herbicidal activity, damage score ALOMY [1]: 3; Pre-emergence herbicidal activity, damage score AMARE [1]: 5; Pre-emergence herbicidal activity, damage score ECHCG [1]: 3; Pre-emergence herbicidal activity, damage score SETFA [1]: 2; Pre-emergence herbicidal activity, damage score ZEAMX [1]: 0; Herbicidal damage score, ABUTH [2]: 5; Herbicidal damage score, ALOMY [2]: 5; Herbicidal damage score, AMARE [2]: 5; Herbicidal damage score, ECHCG [2]: 5; Herbicidal damage score, SETFA [2]: 5; Herbicidal damage score, ZEAMX [2]: 1

How did the “Pre-emergence herbicidal activity, damage score ABUTH” value [1] turn out when `CC1=C(Br)C(=O)N(c2cc3n(n2)CCS(=O)(=O)C3(C)C)C1O` (stereo not drawn) [Compound M4] was run?
Its value is 5.

And the “Pre-emergence herbicidal activity, damage score ALOMY” value [1]?
The value was 2.

And the “Pre-emergence herbicidal activity, damage score AMARE” value [1]?
The value was 5.

And the “Pre-emergence herbicidal activity, damage score ECHCG” value [1]?
The value was 2.

What about the “Pre-emergence herbicidal activity, damage score SETFA” value [1] of the same compound?
Its value is 2.

And the “Pre-emergence herbicidal activity, damage score ZEAMX” value [1]?
Its value is 1.

What about the “Herbicidal damage score, ABUTH” value [2] of the same compound?
Its value is 5.

And the “Herbicidal damage score, ALOMY” value [2]?
Its value is 4.

What about the “Herbicidal damage score, AMARE” value [2] of the same compound?
The value was 5.

What about the “Herbicidal damage score, ECHCG” value [2] of the same compound?
The value was 5.

What about the “Herbicidal damage score, SETFA” value [2] of the same compound?
The value was 4.

And the “Herbicidal damage score, ZEAMX” value [2]?
Its value is 0.

Which “Pre-emergence herbicidal activity, damage score ABUTH” value [1] does the source give for `CC1=C(Br)C(=O)N(c2nn(C)c3c2CCC3(C)C)C1O` (stereo not drawn) [Compound N1] here?
The value was 5.

And the “Pre-emergence herbicidal activity, damage score ALOMY” value [1]?
Its value is 4.

What about the “Pre-emergence herbicidal activity, damage score AMARE” value [1] of the same compound?
The value was 5.

What about the “Pre-emergence herbicidal activity, damage score ECHCG” value [1] of the same compound?
The value was 4.

What about the “Pre-emergence herbicidal activity, damage score SETFA” value [1] of the same compound?
The value was 5.

And the “Pre-emergence herbicidal activity, damage score ZEAMX” value [1]?
Its value is 4.

And the “Herbicidal damage score, ABUTH” value [2]?
Its value is 5.

And the “Herbicidal damage score, ALOMY” value [2]?
Its value is 5.

And the “Herbicidal damage score, AMARE” value [2]?
Its value is 5.

And the “Herbicidal damage score, ECHCG” value [2]?
Its value is 5.

And the “Herbicidal damage score, SETFA” value [2]?
Its value is 5.

What about the “Herbicidal damage score, ZEAMX” value [2] of the same compound?
The value was 4.

Which “Pre-emergence herbicidal activity, damage score ABUTH” value [1] does the source give for `COC1=C(Br)C(=O)N(c2nn(C)c(C(C)(C)C)c2Br)C1O` (stereo not drawn) [Compound O1] here?
The value was 0.

And the “Pre-emergence herbicidal activity, damage score ALOMY” value [1]?
Its value is 0.

What about the “Pre-emergence herbicidal activity, damage score AMARE” value [1] of the same compound?
The value was 0.

And the “Pre-emergence herbicidal activity, damage score ECHCG” value [1]?
Its value is 0.

And the “Pre-emergence herbicidal activity, damage score SETFA” value [1]?
The value was 0.

And the “Pre-emergence herbicidal activity, damage score ZEAMX” value [1]?
The value was 0.

What about the “Herbicidal damage score, ABUTH” value [2] of the same compound?
Its value is 0.

What about the “Herbicidal damage score, ALOMY” value [2] of the same compound?
Its value is 0.

What about the “Herbicidal damage score, AMARE” value [2] of the same compound?
Its value is 0.

What about the “Herbicidal damage score, ECHCG” value [2] of the same compound?
Its value is 0.

What about the “Herbicidal damage score, SETFA” value [2] of the same compound?
The value was 0.

What about the “Herbicidal damage score, ZEAMX” value [2] of the same compound?
Its value is 0.

With `COC1=C(C)C(O)N(c2cc3n(n2)CCC3(C)C)C1=O` (stereo not drawn) [Compound R1] as the compound, how does the “Pre-emergence herbicidal activity, damage score ABUTH” value [1] read?
Its value is 5.

What about the “Pre-emergence herbicidal activity, damage score ALOMY” value [1] of the same compound?
Its value is 4.

And the “Pre-emergence herbicidal activity, damage score AMARE” value [1]?
The value was 5.

What about the “Pre-emergence herbicidal activity, damage score ECHCG” value [1] of the same compound?
The value was 5.

And the “Pre-emergence herbicidal activity, damage score SETFA” value [1]?
Its value is 5.

What about the “Pre-emergence herbicidal activity, damage score ZEAMX” value [1] of the same compound?
Its value is 4.

What about the “Herbicidal damage score, ABUTH” value [2] of the same compound?
The value was 5.

What about the “Herbicidal damage score, ALOMY” value [2] of the same compound?
The value was 5.

And the “Herbicidal damage score, AMARE” value [2]?
The value was 5.

And the “Herbicidal damage score, ECHCG” value [2]?
The value was 5.

And the “Herbicidal damage score, SETFA” value [2]?
The value was 5.

What about the “Herbicidal damage score, ZEAMX” value [2] of the same compound?
Its value is 5.

What does the source list for `COC1=C(C)C(O)N(c2cc3n(n2)CCCC3(C)C)C1=O` (stereo not drawn) [Compound R2]?
Pre-emergence herbicidal activity, damage score ABUTH [1]: 5; Pre-emergence herbicidal activity, damage score ALOMY [1]: 4; Pre-emergence herbicidal activity, damage score AMARE [1]: 5; Pre-emergence herbicidal activity, damage score ECHCG [1]: 5; Pre-emergence herbicidal activity, damage score SETFA [1]: 5; Pre-emergence herbicidal activity, damage score ZEAMX [1]: 4; Herbicidal damage score, ABUTH [2]: 5; Herbicidal damage score, ALOMY [2]: 5; Herbicidal damage score, AMARE [2]: 5; Herbicidal damage score, ECHCG [2]: 5; Herbicidal damage score, SETFA [2]: 5; Herbicidal damage score, ZEAMX [2]: 4

With `COC1=C(OC)C(O)N(c2cc(C(C)(C)C)n(C)n2)C1=O` (stereo not drawn) [Compound T1] as the compound, how does the “Pre-emergence herbicidal activity, damage score ABUTH” value [1] read?
Its value is 5.

And the “Pre-emergence herbicidal activity, damage score ALOMY” value [1]?
Its value is 4.

And the “Pre-emergence herbicidal activity, damage score AMARE” value [1]?
The value was 5.

And the “Pre-emergence herbicidal activity, damage score ECHCG” value [1]?
The value was 5.

And the “Pre-emergence herbicidal activity, damage score SETFA” value [1]?
Its value is 4.

What about the “Pre-emergence herbicidal activity, damage score ZEAMX” value [1] of the same compound?
The value was 2.

And the “Herbicidal damage score, ABUTH” value [2]?
The value was 5.

And the “Herbicidal damage score, ALOMY” value [2]?
Its value is 5.

And the “Herbicidal damage score, AMARE” value [2]?
Its value is 5.

And the “Herbicidal damage score, ECHCG” value [2]?
The value was 5.

And the “Herbicidal damage score, SETFA” value [2]?
The value was 5.

And the “Herbicidal damage score, ZEAMX” value [2]?
The value was 3.

Which results are given for `COC1=C(OC)C(O)N(c2cc(C(F)(F)F)n(C)n2)C1=O` (stereo not drawn) [Compound T2]?
Pre-emergence herbicidal activity, damage score ABUTH [1]: 5; Pre-emergence herbicidal activity, damage score ALOMY [1]: 4; Pre-emergence herbicidal activity, damage score AMARE [1]: 4; Pre-emergence herbicidal activity, damage score ECHCG [1]: 5; Pre-emergence herbicidal activity, damage score SETFA [1]: 5; Pre-emergence herbicidal activity, damage score ZEAMX [1]: 4; Herbicidal damage score, ABUTH [2]: 5; Herbicidal damage score, ALOMY [2]: 5; Herbicidal damage score, AMARE [2]: 5; Herbicidal damage score, ECHCG [2]: 5; Herbicidal damage score, SETFA [2]: 5; Herbicidal damage score, ZEAMX [2]: 5

What does the source list for `COC1=C(OC)C(O)N(c2cc3n(n2)CCC3(C)C)C1=O` (stereo not drawn) [Compound W1]?
Pre-emergence herbicidal activity, damage score ABUTH [1]: 5; Pre-emergence herbicidal activity, damage score ALOMY [1]: 4; Pre-emergence herbicidal activity, damage score AMARE [1]: 5; Pre-emergence herbicidal activity, damage score ECHCG [1]: 4; Pre-emergence herbicidal activity, damage score SETFA [1]: 5; Pre-emergence herbicidal activity, damage score ZEAMX [1]: 3; Herbicidal damage score, ABUTH [2]: 5; Herbicidal damage score, ALOMY [2]: 5; Herbicidal damage score, AMARE [2]: 5; Herbicidal damage score, ECHCG [2]: 5; Herbicidal damage score, SETFA [2]: 5; Herbicidal damage score, ZEAMX [2]: 5

How did the “Pre-emergence herbicidal activity, damage score ABUTH” value [1] turn out when `COC1=C(OC)C(O)N(c2cc3n(n2)CCCC3(C)C)C1=O` (stereo not drawn) [Compound W2] was run?
The value was 5.

And the “Pre-emergence herbicidal activity, damage score ALOMY” value [1]?
The value was 4.

What about the “Pre-emergence herbicidal activity, damage score AMARE” value [1] of the same compound?
Its value is 5.

What about the “Pre-emergence herbicidal activity, damage score ECHCG” value [1] of the same compound?
Its value is 4.

What about the “Pre-emergence herbicidal activity, damage score SETFA” value [1] of the same compound?
The value was 5.

What about the “Pre-emergence herbicidal activity, damage score ZEAMX” value [1] of the same compound?
The value was 4.

And the “Herbicidal damage score, ABUTH” value [2]?
Its value is 5.

What about the “Herbicidal damage score, ALOMY” value [2] of the same compound?
The value was 5.

And the “Herbicidal damage score, AMARE” value [2]?
Its value is 5.

What about the “Herbicidal damage score, ECHCG” value [2] of the same compound?
Its value is 5.

And the “Herbicidal damage score, SETFA” value [2]?
The value was 5.

What about the “Herbicidal damage score, ZEAMX” value [2] of the same compound?
The value was 5.
